What was measured:
Format in all cases: biochemical
recombinant human PKA = target: T1, recombinant human PKA (Homo sapiens, UniProt P17612); experiment: Determination of Protein Kinase A inhibition (Caliper peptide phosphorylation assay); conditions: recombinant human PKA versus ROCK II
T1 construct: Active recombinant human PKA (residues 1-351, N-terminal His-tag); His-tag (N); purchased Invitrogen, Karlsruhe, Germany
Procedure, shortened: (§1)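 Full-length His-tagged PKG1-beta (150 ng/ml working) or His-tagged PKA residues 1-351 (30 ng/ml working) was mixed with compound in pH 7.4 Tris/MgCl2/DTT buffer. Fluorescein-peptide substrate and ATP (3 μM and 120 μM working) were then added for 60 min at 32 °C before an EDTA stop. Phosphopeptide was separated electrophoretically on a Caliper instrument to derive IC50.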

[1] = target: T2, recombinant human PKG1-beta (Homo sapiens, UniProt Q13976); experiment: Determination of Protein Kinase G inhibition (Caliper peptide phosphorylation assay); conditions: recombinant human PKG1-beta versus ROCK II
T2 construct: Active recombinant human PKG1-beta (full-length, with N-terminal His-tag); His-tag (N); purchased Millipore GmbH, Schwalbach, Germany
T2 sequence (Q13976 1-686 isoform Q13976-2): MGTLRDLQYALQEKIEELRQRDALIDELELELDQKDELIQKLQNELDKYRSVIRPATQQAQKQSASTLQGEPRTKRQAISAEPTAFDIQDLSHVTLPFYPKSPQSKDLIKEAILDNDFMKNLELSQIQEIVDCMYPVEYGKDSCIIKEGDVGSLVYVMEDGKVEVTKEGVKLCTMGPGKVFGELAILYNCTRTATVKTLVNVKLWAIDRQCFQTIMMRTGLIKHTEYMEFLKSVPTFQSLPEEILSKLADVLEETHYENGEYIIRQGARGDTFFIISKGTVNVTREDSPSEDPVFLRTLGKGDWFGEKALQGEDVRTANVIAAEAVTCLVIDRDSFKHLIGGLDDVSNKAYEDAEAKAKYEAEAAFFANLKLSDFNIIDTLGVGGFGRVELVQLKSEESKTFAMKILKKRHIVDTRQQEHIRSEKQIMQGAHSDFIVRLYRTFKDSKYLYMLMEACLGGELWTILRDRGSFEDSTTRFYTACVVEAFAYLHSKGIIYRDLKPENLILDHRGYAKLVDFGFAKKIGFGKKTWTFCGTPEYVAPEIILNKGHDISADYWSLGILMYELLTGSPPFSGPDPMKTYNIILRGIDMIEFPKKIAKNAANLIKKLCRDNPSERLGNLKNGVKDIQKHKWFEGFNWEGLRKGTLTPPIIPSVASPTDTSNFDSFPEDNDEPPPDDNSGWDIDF
Procedure, shortened: as §1

[2] = target: T3, human recombinant ROCK II (Homo sapiens, UniProt O75116); experiment: Determination of Rho kinase inhibition (Caliper peptide phosphorylation assay); conditions: 60 min at 32° C., negative decadal logarithm of the IC50
T3 construct: N-terminal His6-tagged recombinant human ROCK-II residues 11-552; His6 (N); purchased Millipore GmbH, Schwalbach, Germany
T3 sequence (O75116 11-552): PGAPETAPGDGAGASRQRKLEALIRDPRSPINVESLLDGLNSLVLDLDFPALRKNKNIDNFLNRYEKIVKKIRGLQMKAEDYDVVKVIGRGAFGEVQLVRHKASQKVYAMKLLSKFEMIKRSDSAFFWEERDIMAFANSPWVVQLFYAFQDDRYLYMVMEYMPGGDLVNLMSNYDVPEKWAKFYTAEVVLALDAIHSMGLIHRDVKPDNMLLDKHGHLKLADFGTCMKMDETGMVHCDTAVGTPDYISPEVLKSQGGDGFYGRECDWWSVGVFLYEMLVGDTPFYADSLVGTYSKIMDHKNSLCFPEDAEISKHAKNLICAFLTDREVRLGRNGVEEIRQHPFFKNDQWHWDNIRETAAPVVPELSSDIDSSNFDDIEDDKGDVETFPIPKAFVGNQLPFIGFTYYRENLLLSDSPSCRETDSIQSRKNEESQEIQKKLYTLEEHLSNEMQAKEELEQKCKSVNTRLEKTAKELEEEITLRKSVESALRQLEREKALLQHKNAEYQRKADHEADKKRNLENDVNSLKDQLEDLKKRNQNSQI
Procedure, shortened: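 His6-tagged human ROCK II (residues 11-552) phosphorylated a fluorescein-labelled peptide for 60 min at 32° C in Tris-HCl pH 7.4 with MgCl2, DTT and BSA, using 3 μM peptide and 120 μM ATP as diluted stocks. EDTA-stopped; phosphopeptide separated and detected by Caliper mobility shift; IC50 determined.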

| SMILES | Selectivity against PKA (recombinant human PKA) | Selectivity against PKG [1] | pIC50 [2] |
| --- | --- | --- | --- |
| CC(N)[C@]1(c2ccc(F)cc2)CC[C@H](Oc2cc3cc[nH]c(=O)c3cc2Cl)CC1 (stereo partly drawn) [Example 15, cis-6-[4-(1-Amino-ethyl)-4-(4-fluoro-phenyl)-cyclo-hexyloxy]-7-chloro-2H-iso quinolin-1-one] | >1000 | >300 | +++++++ (8.0≦pIC50) |
| CCC(N)[C@]1(c2cccc(Br)c2)CC[C@@H](Oc2cc3cc[nH]c(=O)c3cc2Cl)CC1 (stereo partly drawn) [Example 16, trans-6-[4-(1-Amino-propyl)-4-(3-bromo-phenyl)-cyclohexyloxy]-7-chloro-2H-iso quinolin-1-one] | >300 | >100 | ++++++ (7.0≦pIC50<8.0) |
| CCC(N)[C@]1(c2cccc(OC)c2)CC[C@@H](Oc2cc3cc[nH]c(=O)c3cc2Cl)CC1 (stereo partly drawn) [Example 17, trans-6-[4-(1-Amino-propyl)-4-(3-methoxy-phenyl)-cyclohexyloxy]-7-chloro-2H-iso quinolin-1-one] | >300 | >100 | ++++++ (7.0≦pIC50<8.0) |
| CC(C)C(N)[C@]1(c2ccccc2)CC[C@@H](Oc2cc3cc[nH]c(=O)c3cc2Cl)CC1 (stereo partly drawn) [Example 19, trans-6-[4-(1-Amino-2-methyl-propyl)-4-phenyl-cyclohexyloxy]-7-chloro-2H-iso quinolin-1-one] | >100 | >100 | +++++ (6.0≦pIC50<7.0) |
| CC(C)CC(N)[C@]1(c2ccccc2)CC[C@@H](Oc2cc3cc[nH]c(=O)c3cc2Cl)CC1 (stereo partly drawn) [Example 20, trans-6-[4-(1-Amino-3-methyl-butyl)-4-phenyl-cyclohexyloxy]-7-chloro-2H-iso quinolin-1-one] | >100 | >100 | ++++++ (7.0≦pIC50<8.0) |
| CC(C)(N)[C@]1(c2ccc(F)cc2)CC[C@@H](Oc2cc3cc[nH]c(=O)c3cc2Cl)CC1 [Example 22, trans-6-[4-(1-Amino-1-methyl-ethyl)-4-(4-fluoro-phenyl)-cyclohexyloxy]-7-chloro-2H-iso quinolin-1-one] | >300 | >100 | ++++++ (7.0≦pIC50<8.0) |
| CC(N)[C@]1(c2ccccc2)CC[C@H](Oc2cc3cc[nH]c(=O)c3cc2Cl)CC1 (stereo partly drawn) [Example 24, cis-6-[4-(1-Amino-ethyl)-4-phenyl-cyclohexyloxy]-7-chloro-2H-iso quinolin-1-one] | >1000 | >300 | +++++++ (8.0≦pIC50) |
| CC(C)(N)[C@]1(c2ccccc2)CC[C@H](Oc2cc3cc[nH]c(=O)c3cc2Cl)CC1 [Example 25, cis-6-[4-(1-Amino-1-methyl-ethyl)-4-phenyl-cyclo-hexyloxy]-7-chloro-2H-iso quinolin-1-one] | >1000 | >100 | +++++++ (8.0≦pIC50) |
| NC(C1CC1)[C@]1(c2ccccc2)CC[C@H](Oc2cc3cc[nH]c(=O)c3cc2Cl)CC1 (stereo partly drawn) [Example 26] | >1000 | >300 | +++++++ (8.0≦pIC50) |
| CCC(N)[C@]1(c2ccc(C(C)C)cc2)CC[C@H](Oc2cc3cc[nH]c(=O)c3cc2Cl)CC1 (stereo partly drawn) [Example 27, cis-6-[4-(1-Amino-propyl)-4-(4-isopropyl-phenyl)-cyclohexyloxy]-7-chloro-2H-iso quinolin-1-one] | >100 | >10 | ++++++ (7.0≦pIC50<8.0) |
| CCC(N)[C@]1(c2cccc(OC)c2)CC[C@H](Oc2cc3cc[nH]c(=O)c3cc2Cl)CC1 (stereo partly drawn) [Example 28] | >1000 | >1000 | +++++++ (8.0≦pIC50) |
| CCC(N)[C@]1(c2ccc(F)cc2)CC[C@@H](Oc2cc3cc[nH]c(=O)c3cc2Cl)CC1 (stereo partly drawn) [Example 31, trans-6-[4-(1-amino-propyl)-4-(4-fluoro-phenyl)-cyclohexyloxy]-7-chloro-2H-iso quinolin-1-one] | >300 | >100 | ++++++ (7.0≦pIC50<8.0) |
| CCC(N)[C@]1(c2ccccc2)CC[C@@H](Oc2cc3cc[nH]c(=O)c3cc2Cl)CC1 (stereo partly drawn) [Example 32] | >1000 | >300 | ++++++ (7.0≦pIC50<8.0) |
| CCC(N)[C@]1(c2ccccn2)CC[C@H](Oc2cc3cc[nH]c(=O)c3cc2Cl)CC1 (stereo partly drawn) [Example 55, cis-6-[4-(1-Amino-propyl)-4-pyridin-2-yl-cyclohexyloxy]-7-chloro-2H-isoquinolin-1-one] | >1000 | >300 | +++++++ (8.0≦pIC50) |
| CCC(N)[C@]1(c2ccc(F)cc2F)CC[C@H](Oc2cc3cc[nH]c(=O)c3cc2Cl)CC1 (stereo partly drawn) [Example 56, cis-6-[4-(1-Amino-propyl)-4-(2,4-difluoro-phenyl)-cyclohexyloxy]-7-chloro-2H-isoquinolin-1-one] | >1000 | >300 | +++++++ (8.0≦pIC50) |
| CCC(N)[C@]1(c2ccc(F)cc2C)CC[C@H](Oc2cc3cc[nH]c(=O)c3cc2Cl)CC1 (stereo partly drawn) [Example 57, cis-6-[4-(1-Amino-propyl)-4-(4-fluoro-2-methyl-phenyl)cyclohexyloxy]-7-chloro-2H-isoquinolin-1-one] | >1000 | >300 | +++++++ (8.0≦pIC50) |
| CCC(N)[C@]1(c2cc(F)cc(F)c2)CC[C@H](Oc2cc3cc[nH]c(=O)c3cc2Cl)CC1 (stereo partly drawn) [Example 58, cis-6-[4-(1-Amino-propyl)-4-(3,5-difluoro-phenyl)-cyclohexyloxy]-7-chloro-2H-isoquinolin-1-one] | >1000 | >100 | +++++++ (8.0≦pIC50) |
| CCC(N)[C@]1(c2ccc(F)c(F)c2)CC[C@H](Oc2cc3cc[nH]c(=O)c3cc2Cl)CC1 (stereo partly drawn) [Example 59, cis-6-[4-(1-Amino-propyl)-4-(3,4-difluoro-phenyl)-cyclohexyloxy]-7-chloro-2H-isoquinolin-1-one] | >1000 | >300 | +++++++ (8.0≦pIC50) |
| CCC(N)[C@]1(c2ccccc2C)CC[C@H](Oc2cc3cc[nH]c(=O)c3cc2Cl)CC1 (stereo partly drawn) [Example 60, cis-6-[4-(1-Amino-propyl)-4-o-tolyl-cyclohexyloxy]-7-chloro-2H-isoquinolin-1-one] | >1000 | >100 | +++++++ (8.0≦pIC50) |
| CCC(N)[C@]1(c2ccccc2OC(F)(F)F)CC[C@H](Oc2cc3cc[nH]c(=O)c3cc2Cl)CC1 (stereo partly drawn) [Example 61, cis-6-[4-(1-Amino-propyl)-4-(2-trifluoromethoxy-phenyl)-cyclohexyloxy]-7-chloro-2H-iso quinolin-1-one] | >10 | >1 | +++++ (6.0≦pIC50<7.0) |
| CCC(N)[C@]1(c2ccc(F)c(OC)c2)CC[C@H](Oc2cc3cc[nH]c(=O)c3cc2Cl)CC1 (stereo partly drawn) [Example 62, cis-6-[4-(1-Amino-propyl)-4-(4-fluoro-3-methoxy-phenyl)-cyclohexyloxy]-7-chloro-2H-iso quinolin-1-one] | >1000 | >300 | +++++++ (8.0≦pIC50) |
| CCOc1cccc([C@]2(C(N)CC)CC[C@@H](Oc3cc4cc[nH]c(=O)c4cc3Cl)CC2)c1 (stereo partly drawn) [Example 63, cis-6-[4-(1-Amino-propyl)-4-(3-ethoxy-phenyl)-cyclohexyloxy]-7-chloro-2H-isoquinolin-1-one] | >1000 | >300 | +++++++ (8.0≦pIC50) |
| CCC(N)[C@]1(c2cc(F)cc(F)c2)CC[C@H](Oc2cc3cc[nH]c(=O)c3cc2F)CC1 (stereo partly drawn) [Example 66] | >10 | >10 | +++++ (6.0≦pIC50<7.0) |
